Converted amounts (≈) assume the structure as drawn.
Details: buffer; pH 7.4; 200.0 µM

| Compound | solubility kinetic [mg/mL] |
| --- | --- |
| S=C(NCc1ccccc1)N1CCc2ccccc2C1 | 0.0056 (≈ 19.8 µM) |
| O=C(NC1=NCCS1)c1cccc(Br)c1 | 0.0113 (≈ 39.6 µM) |
| N=C1SCC(=O)N1c1ccc(Cl)cc1 | > 0.034 |
| CCC(C)c1ccc(C(CC)NC(=O)C2CCCO2)cc1 (stereo not given) | 0.0345 (≈ 119 µM) |
| Cc1ccccc1CC(=O)NCCN1CCOCC1 | > 0.0394 |
| NC(=O)c1cccc(-c2cccc(OC(=O)NC3CCCCC3)c2)c1 | < 0.0004 |
| CCCn1c(Nc2cccc(OC)c2)nc2ccccc21 | 0.0021 (≈ 7.46 µM) |
| Cc1cccc(S(=O)(=O)Nc2ccc(S(=O)(=O)Nc3nccs3)cc2)c1 | > 0.0614 |
| COc1ccc(CNC(=S)NCc2ccc(F)cc2)cc1 | 0.0095 (≈ 31.2 µM) |
| COCC(=O)Nc1ccc(N2CCN(c3ccccc3)CC2)c(F)c1 | 0.002 (≈ 5.82 µM) |
| Cc1ccc2nc(-c3ccc(O)cc3)oc2c1 | 0.0017 (≈ 7.55 µM) |
| O=C(NC(=S)Nc1cccc2c(O)cccc12)c1ccco1 | 0.0093 (≈ 29.8 µM) |
| Cc1cccc(C(=O)Nc2cc(NC(=O)c3cccs3)ccc2C)c1 | 0.002 (≈ 5.71 µM) |
| O=C(NCCCCNC(=O)C(F)(F)F)C(F)(F)F | > 0.042 |
| Cn1cnc(S(=O)(=O)Nc2ccc(OC(F)(F)F)cc2)c1 | 0.0397 (≈ 124 µM) |
| CNS(=O)(=O)c1cccc(C(=O)OCC(=O)NC2CCCC2)c1 | > 0.0511 |
| COC(=O)C(Cc1ccccc1)NC(=O)CCC(=O)NC(C)CCc1ccccc1 (stereo not given) | > 0.0616 |
| C=CCn1c(NCc2ccco2)nc2ccccc21 | > 0.038 |
| Cl.O=[N+]([O-])c1cc(S(=O)(=O)CCCN2CCOCC2)ccc1F | > 0.0553 |
| Cc1cc(C)nc(NC(=S)Nc2cccc(F)c2)c1 | < 0.0002 |

| Compound | solubility kinetic [mg/mL] |
| --- | --- |
| O=C(O)CC(SCC(=O)NC1CCCc2ccccc21)C(=O)O (stereo not given) | > 0.0506 |
| O=C(Nc1ccccc1N1CCCCC1)c1cccc(Cl)c1 | < 0.0003 |
| Cn1ccnc1Sc1ccc(C=O)cc1[N+](=O)[O-] | > 0.0395 |
| CN(C(=O)COC(=O)c1ccc2ccccc2n1)C1CCCCC1 | > 0.049 |
| CC(=O)c1ccc(NC(=O)c2cc(=O)[nH]c3ccccc23)cc1 | 0.002 (≈ 6.53 µM) |
| CCOC(=O)c1ccc(NCc2cccnc2)cc1 | > 0.0384 |
| O=C(c1ccc(F)cc1)C(Cc1ccccc1)N1CCCCC1 (stereo not given) | 0.0131 (≈ 42.1 µM) |
| ON(Cc1c(F)cccc1Cl)Cc1c(F)cccc1Cl | 0.0009 (≈ 2.83 µM) |
| COC(=O)c1c(NC(=O)C(C)C)sc(C(=O)N2CCOCC2)c1C | > 0.0532 |
| Cc1ccc(OC(F)F)c(N2C(=O)C3C4CCC(O4)C3C2=O)c1 (stereo not given) | > 0.0485 |
| COc1cccc(NC(=O)c2cnc(SC)nc2C)c1 | > 0.0434 |
| CN(C)c1nc(N(C)C)nc(N(C#N)CCCl)n1 | 0.0192 (≈ 71.2 µM) |
| Oc1cccc(Nc2nc(N3CCOCC3)nc(N3CCOCC3)n2)c1 | 0.0461 (≈ 129 µM) |
| Cn1c(-c2ccccc2)nc2cnccc21 | > 0.0314 |
| COc1ccc(C)cc1NC(=S)N1CC(C)OC(C)C1 (stereo not given) | > 0.0442 |
| Cc1ccc(C(=O)O/N=C(\N)Cc2cccc3ccccc23)cc1 | 0.0005 (≈ 1.57 µM) |
| CC(CN1CCCC1)OC(=O)c1ccc(Cl)cc1Cl.Cl (stereo not given) | > 0.0508 |
| Cn1c(N)c(C(=O)COC(=O)c2ccc(-c3ccccc3)cc2)c(=O)n(C)c1=O | 0.0068 (≈ 17.3 µM) |
| CSc1ncc(C(=O)Nc2cccc(Cl)c2)c(C)n1 | > 0.0441 |
| O=C(COc1ccccc1)NC1CCCCCCC1 | 0.0362 (≈ 139 µM) |

| Compound | solubility kinetic [mg/mL] |
| --- | --- |
| Cc1ccc(N2C(=O)c3ccccc3C(C)(C)C2=O)cc1 | 0.0128 (≈ 45.8 µM) |
| NC1=NC(=O)CC(C(=O)Nc2cccc3ccccc23)S1 (stereo not given) | > 0.0449 |
| CS(=O)c1ccc(-n2c(=O)n(Cc3ccccc3)c(=O)c3[nH]cnc32)cc1 (stereo not given) | > 0.0571 |
| CC(C)CN(C(=O)CCNC(=O)c1ccc([N+](=O)[O-])cc1)C1CCS(=O)(=O)C1 (stereo not given) | 0.057 (≈ 139 µM) |
| Cc1ccc(S(=O)(=O)N(C)c2ccc3ccccc3c2)cc1 | 0.0016 (≈ 5.14 µM) |
| CN(C)C(=O)CN1C(=O)c2cccc3cccc1c23 | 0.0331 (≈ 130 µM) |
| CCc1cccc(C)c1NC(=O)COC(=O)CC1CCCC1 | 0.0157 (≈ 51.7 µM) |
| N#CC1=C(S)N(c2ccc(F)cc2)C2(CCCCC2)NC1=O | > 0.0476 |
| COP(=O)(OC)C(NC(=O)Nc1ccccc1)c1ccccc1 (stereo not given) | 0.0439 (≈ 131 µM) |
| O=C(c1cccc([N+](=O)[O-])c1)c1ccc2c(c1)OCCOCCOCCO2 | > 0.056 |
| O=C(COC(=O)c1ccccc1O)NC12CC3CC(CC(C3)C1)C2 | 0.0145 (≈ 44 µM) |
| CNC(=O)c1sc(-c2cccs2)nc1C | > 0.0357 |
| COc1ccc(OCC(O)CNC(=O)Nc2ccccc2)cc1 (stereo not given) | 0.0269 (≈ 85 µM) |
| Cc1ccc2nc(SCC(=O)Nc3c(F)cccc3F)[nH]c2c1 | 0.0434 (≈ 130 µM) |
| CCC(C)c1ccc(S(=O)(=O)N2CCN(c3ccccn3)CC2)cc1 (stereo not given) | < 0.0003 |
| C=CCN(Cc1nc(-c2ccccc2)no1)C(=O)c1ccco1 | 0.0384 (≈ 124 µM) |
| O=C(Nc1ccccc1)c1c2c(nc3ccccc13)CCCC2 | 0.0005 (≈ 1.65 µM) |
| CCOC(=O)c1cnc2c(F)ccc(F)c2c1Sc1ccccc1 | 0.0057 (≈ 16.5 µM) |
| CCN(CC)CCNS(=O)(=O)c1ccc(/C=C/C(=O)O)cc1 | 0.041 (≈ 126 µM) |
| CCCC(=O)Nc1ccc2c(c1)nc(CCNC(=O)c1ccco1)n2C | > 0.0532 |
